Reference: US20110034498A1, “DOSING REGIMENS FOR THE TREATMENT OF CANCER” (priority 2006, published 2011)

Assays:
Type in all cases: in vivo
[1] = tested on: PC-3 cells; assay: mouse PC-3 prostate xenograft model, subcutaneous tumor burden; conditions: for End Volume / Start Volume: 10 mg/kg/day (table); for End Volume: after 25 days of treatment; for Start Volume: tumor volume at start
Procedure: A study was performed in mouse PC-3 prostate xenograft models to assess the ability of the methods of the present invention to reduce subcutaneous tumor burden. In the study male athymic nude (Nu/Nu) mice were implanted with PC-3 cells (1×10^7 cells) into the flank of the left leg. When the average tumor size reached 200 mm^3 animals were randomly assigned to treatment groups (N=12/group). Mice were implanted with Alzet mini pumps containing either the HCl salt of compound 1 or vehicle (30% HPBCD in WFI). The mini pumps were surgically implanted subcutaneously on the flank of the right leg, contralateral to the site of the tumor implant. The pumps were replaced with new pumps every 6th day of the study. In the study, mice received either vehicle or the test compound at 10.6 mg/kg/day. Tumor volumes for each group were measured at regular intervals during treatment. The animals were sacrificed after 25 days of treatment and tumor volumes were compared.
A study was performed in mouse PC-3 prostate xenograft models to assess the ability of the methods of the present invention to reduce subcutaneous tumor burden. Male athymic nude (Nu/Nu) mice were implanted with PC-3 cells (1×10^7 cells) into the flank of the left leg. When the average tumor size reached 200 mm^3, animals were randomly assigned to treatment groups (N=12/group). […] The mini pumps were surgically implanted subcutaneously on the flank of the right leg, contralateral to the site of the tumor implant. The pumps were replaced with new pumps every 6th day of the study. Mice received either vehicle or the test compound at 10.6 mg/kg/day. Tumor volumes for each group were measured at regular intervals during treatment. The animals were sacrificed after 25 days of treatment, and tumor volumes were compared.

[2] = tested on: SKOV-3 cells; assay: mouse SKOV-3 xenograft model, subcutaneous tumor burden; conditions: for End Volume / Start Volume: nude mice, HCl salt via s.c. Alzet mini pump; for End Volume: treatment lasted 74 days; for Start Volume: tumor volume at start
Procedure: When the average tumor size reached 50 mm^3, animals were randomly assigned to treatment groups. […] Tumor volumes of the two groups were measured at regular intervals during treatment, which lasted 74 days.

[3] = tested on: PAN-02 cells; assay: mouse PAN-02 xenograft model, subcutaneous tumor burden
Source text: The PAN-02 cells were maintained by in vivo passaging in C57/1316 mice. Male C57/B16 mice were implanted with PAN-02 cells (8 mm^3 tumor fragments) into the inguinal area. Each mouse was implanted with an 8 mm^3 tumor PAN-02 tumor fragment collected from a donor mouse. The tumor fragment was loaded onto a 16 G trocar and implanted by piercing through the skin in the right inguinal area. The animals were randomly assigned to treatment groups (N=14/group). […] Mice received either vehicle or the test compound at 20 mg/kg/day. Tumor volumes of the two groups were measured at regular intervals during treatment, which lasted 32 days.

[4] = PC-3 xenograft, male athymic nude mice, HCl salt via s.c. Alzet mini pump, continuous
[5] = PC-3 xenograft (Example 5), nude mice, HCl salt of cyclopamine via s.c. Alzet mini pump

Structure (SMILES)	End Volume [1, 4]	Start Volume [1, 4]	growth of the tumors ([1]; PC-3 xenograft, continuous doses 10.6 mg/kg/day, 25 days, versus vehicle)	growth of the tumors ([2]; continuous doses 10.6 or 20 mg/kg/day, 74 days, versus vehicle)	End Volume ([2]; 10.6 mg/kg/day)	Start Volume ([2]; 10.6 mg/kg/day)	End Volume ([2]; 20 mg/kg/day)	Start Volume ([2]; 20 mg/kg/day)	growth of the tumors ([3]; PAN-02 model, continuous doses 20 mg/kg/day, 32 days, versus vehicle)	End Volume ([3]; PAN-02 tumor fragments in male C57/B16 mice, HCl salt via s.c. Alzet mini pump, 20 mg/kg/day, treatment lasted 32 days)	Start Volume ([3]; PAN-02 tumor fragments in male C57/B16 mice, HCl salt via s.c. Alzet mini pump, 20 mg/kg/day, tumor volume at start)	End Volume [1, 5]	Start Volume [1, 5]
CC1=C2C[C@H]3[C@@H](CCC4=CC(=O)CC[C@@]43C)[C@@H]2CC[C@@]2(C1)O[C@@H]1C[C@H](C)CN[C@H]1[C@H]2C [Compound 1]	444 ± 101 mm^3	188 ± 17 mm^3	significantly reduced	significantly reduced	186 ± 57 mm^3	57 ± 5 mm^3	52 ± 11 mm^3	31 ± 4 mm^3	significantly reduced	481 ± 64 mm^3	82 ± 8 mm^3		
CC1=C2C[C@H]3[C@@H](CC=C4C[C@@H](O)CC[C@@]43C)[C@@H]2CC[C@]12O[C@@H]1C[C@H](C)CN[C@H]1[C@H]2C [Cyclopamine, reference compound]												448 ± 152 mm^3	170 ± 29 mm^3
